Source: US5532372A, “Imide derivatives, and their production and use” (Sumitomo Pharmaceuticals Company, Ltd., priority 1990, dated 1996)
Where two headings read alike, the source gives them in different places.

Key:
dopamine D2 receptor = target: T1, dopamine D2 receptor (Rattus norvegicus, UniProt P61169); assay: Dopamine D2 receptor binding assay (in vitro), [3H] raclopride; conditions: at the concentration of 0.01 μM; Table 3; read-out: Antipsychotic activity (% inhibition), inhibition of [3H] raclopride binding to D2 receptors
T1 construct: from tissue; host or cells: rat corpus striatum, membrane fractions

mice = assay: Anti-climbing activity (in vivo), climbing behavior induced by apomorphine in mice; design: species or system mice (ddY strain male); conditions: Mus musculus, 1 h, read-out: ED50 (50% suppressive dose) of climbing behavior
Text: (ii) Anti-climbing activity (in vivo)
This activity is examined through the anti-climbing behavior test, i.e. the test for suppressing the climbing behavior induced by apomorphine in mice.
A designed amount of the test compound is orally administered to several groups of ddY strain male mice (bodyweight, 20 to 25 g; one group, 5 mice), and each of the animals is placed in an individual column cage of 12 cm in diameter and 14 cm in height having metal poles (each pole, 2 mm in diameter) vertically installed and arranged along the periphery with intervals of 1 cm. After 60 minutes, apomorphine (1.0 mg/kg) is subcutaneously injected, and the behavior is observed during 10 to 20 minutes.
0 All the paws are on the floor
1 only forepaws seize the pole of the cage
2 All the paws seize the pole of the cage;
climbing behavior observed discontinuously
3 Continuous climbing behavior observed

[1] = Catalepsy inducing activity (extrapyramidal side-effect); design: species or system male mice; conditions: mouse, in vivo; oral, one hour later, mice; Table 5
Text: A designated amount of the test compounds is orally administered to male mice, and one hour later a pair of forepaws are forcedly hanged on an iron pipe (diameter, 2.5 mm) horizontally set at a height of 5 cm. At least one cataleptic state of more than 30 second per three trials is regarded as positive.

in vivo = conditions: mouse, po
[2] = oral, 60 minutes before apomorphine (1.0 mg/kg s.c.), mice, Table 4

T1 sequence (P61169 whole entry): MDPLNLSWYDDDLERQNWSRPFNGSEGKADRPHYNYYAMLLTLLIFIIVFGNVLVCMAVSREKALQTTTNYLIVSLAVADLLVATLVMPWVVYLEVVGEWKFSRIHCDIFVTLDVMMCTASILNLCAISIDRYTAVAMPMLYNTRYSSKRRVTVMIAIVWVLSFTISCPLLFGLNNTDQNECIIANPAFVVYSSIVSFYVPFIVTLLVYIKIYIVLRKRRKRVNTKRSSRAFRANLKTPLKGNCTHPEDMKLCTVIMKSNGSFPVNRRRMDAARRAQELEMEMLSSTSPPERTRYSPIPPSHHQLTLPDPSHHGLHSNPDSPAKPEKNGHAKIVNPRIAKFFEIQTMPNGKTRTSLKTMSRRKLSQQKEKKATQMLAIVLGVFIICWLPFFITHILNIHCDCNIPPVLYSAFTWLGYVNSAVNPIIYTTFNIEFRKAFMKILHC

Structure (SMILES) | inhibition at 0.01 µM (dopamine D2 receptor) [%] | ED50 (mice; [2]) [mg/kg] | ED50 at 1 h [1] [mg/kg] | ED50 at 1 h (in vivo) [mg/kg] | ED50 (mice; po) [mg/kg]
O=C1[C@H]2CCCC[C@H]2C(=O)N1C[C@@H]1C[C@H]1CN1CCN(c2nsc3ccccc23)CC1 (relative stereo) [Compound No. 107] | 71 | 26.5 |  |  | 
O=C1[C@@H]2[C@H]3CC[C@H](C3)[C@@H]2C(=O)N1C[C@@H]1CCCC[C@H]1CN1CCN(c2nsc3ccccc23)CC1 (relative stereo) [Compound No. 101] |  | 10.3 | 747 | > 1000 | 
O=C1[C@@H]2[C@H]3CC[C@H](C3)[C@@H]2C(=O)N1C1CCCC(CN2CCN(c3nsc4ccccc34)CC2)C1 (stereo partly shown) [Compound No. 106] | 90 |  |  |  | 
CN(C)CCCN1c2ccccc2Sc2ccc(Cl)cc21 [Chlorpromazine, reference compound] |  |  | 18 |  | 4.2
O=C(CCCN1CCC(O)(c2ccc(Cl)cc2)CC1)c1ccc(F)cc1 [Haloperidol, reference compound] |  | 0.67 | 3.1 | 4.1 | 

Continued, in another order:

inhibition at 0.01 µM (dopamine D2 receptor) [%] | Structure (SMILES) | ED50 (mice; [2]) [mg/kg] | ED50 at 1 h [1] [mg/kg] | ED50 at 1 h (in vivo) [mg/kg] | ED50 (mice; po) [mg/kg]
11 | O=C1[C@@H]2[C@H]3CC[C@H](C3)[C@@H]2C(=O)N1C[C@@H]1C[C@H]1CN1CCN(c2ncccn2)CC1 (relative stereo) [compound 163] |  |  |  | 
24 | O=C(c1ccc(F)cc1)C1CCN(C[C@@H]2C[C@H]2CN2C(=O)[C@H]3CCCC[C@H]3C2=O)CC1 (relative stereo) [compound 161] |  |  |  | 
